The source of these data is the supplement of paper PMC11208160.
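Also: IS621 bridge recombinase in Escherichia coli cells against a fixed T5 target plasmid.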

The series in a line: recombinant UMI read abundance after kanamycin selection (control-corrected) (log10(CPM+1)); higher = more efficient recombination; extreme values may be limits of the assay; sequences stand for … in AGTGCAGAGAAAATCGGCCAGTTTTCTCTGCCTGCAGTCCGCATGCCGTGGGACCCCTTGGGTTCTAACCTGTTGCCTAGATTTATGCAGCGGACTGCCTTTCTCCCAAAGTGATAAACCGG…AGGTTGGTTTCACT; site = the 11-nt donor. The protocol:
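Pooled E. coli donor-specificity screen for the IS621 bridge recombinase. Each library member carries a reprogrammed 11-nt donor and a full-length LE bridge RNA expressed in cis from the natural promoter, with a paired donor-binding loop (8-nt LDG + 4-nt RDG) and a target-binding loop fixed to T5. It is co-electroporated with a T5 target plasmid; recombinase is induced with 0.07 mM IPTG and recombinants are selected on kanamycin. UMIs are counted as CPM, averaged over two biological replicates and corrected by the unselected control. Molecule = full bridge RNA written as DNA, built from the T5 scaffold: LDG = donor specificity nt 1-8, RDG = reverse complement of nt 8-11.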
Take “ACCTAGACATGGACCGGTTTTCCCGGTAATCCGTATTTGGT (site ACCTAGACTGC)”: the “recombinant UMI read abundance (log10)” value came to 0. As to “ACCTAGACATGGACCGGTTTTCCCGGTAATCCGTATTTGGT (site ACCTAGACTTC)”, the “recombinant UMI read abundance (log10)” value was 0.0137. The same measure for “ACCTCAGCATGGACCGGTTTTCCCGGTAATCCGTATTTGGG (site AACTCAGCTCC)”: 0.0172; for “ACCTCAGCATGGACCGGTTTTCCCGGTAATCCGTATTTGGG (site ACCTCAGCTCC)”: 0.00849; for “ACCTCAGCATGGACCGGTTTTCCCGGTAATCCGTATTTGGG (site AGCTCAGCTCC)”: 0.0171.

On to “ACCTCAGCATGGACCGGTTTTCCCGGTAATCCGTATTTGGG (site ATCTCAGCTCC)”, for which the “recombinant UMI read abundance (log10)” value is 0.0291. The same measure for “ACCTCGTCATGGACCGGTTTTCCCGGTAATCCGTATTTGAA (site ACCTCGTCTTT)”: 0.5.

Regarding “ACCTGAACATGGACCGGTTTTCCCGGTAATCCGTATTTGGC (site ACCTGAACTGC)”, the “recombinant UMI read abundance (log10)” value was 1.39. For the sequence “ACCTTGCCATGGACCGGTTTTCCCGGTAATCCGTATTTGAA (site ACCTTGCCTTT)”, the “recombinant UMI read abundance (log10)” value came to 0.00655. The same measure for “ACGAAAACATGGACCGGTTTTCCCGGTAATCCGTATTTGCA (site ACGAAAACTTG)”: 2.73.

Take “ACGAAAACATGGACCGGTTTTCCCGGTAATCCGTATTTGCA (site AGGAAGACTTG)”: the “recombinant UMI read abundance (log10)” value is 0. The same measure for “ACGAGAACATGGACCGGTTTTCCCGGTAATCCGTATTTGAG (site ACAAGAACTCT)”: 2.65; for “ACGAGAACATGGACCGGTTTTCCCGGTAATCCGTATTTGAG (site ACCAGAACTCT)”: 0.752; for “ACGAGAACATGGACCGGTTTTCCCGGTAATCCGTATTTGAG (site ACGAGAACTCT)”: 2.59. On to “ACGAGAACATGGACCGGTTTTCCCGGTAATCCGTATTTGAG (site ACTAGAACTCT)”, for which the “recombinant UMI read abundance (log10)” value turned out to be 0.873. Regarding “ACGATTGCATGGACCGGTTTTCCCGGTAATCCGTATTTGGA (site ACGATTGCTTC)”, the “recombinant UMI read abundance (log10)” value worked out at 1.97.

As for “ACGCACACATGGACCGGTTTTCCCGGTAATCCGTATTTGAA (site ACGCACACTTT)”, the “recombinant UMI read abundance (log10)” value came to 2.08. In the case of “ACGCATCCATGGACCGGTTTTCCCGGTAATCCGTATTTGAC (site ACACATCCTGT)” it was 1.31; in that of “ACGCATCCATGGACCGGTTTTCCCGGTAATCCGTATTTGAC (site ACCCATCCTGT)”, 0; in that of “ACGCATCCATGGACCGGTTTTCCCGGTAATCCGTATTTGAC (site ACGCATCCTGT)”, 1.8. In the case of “ACGCATCCATGGACCGGTTTTCCCGGTAATCCGTATTTGAC (site ACTCATCCTGT)” it was 0. In the case of “ACGCCCTCATGGACCGGTTTTCCCGGTAATCCGTATTTGGG (site ACGCCCTCTCC)” it was 0.119. Consider “ACGCGCCCATGGACCGGTTTTCCCGGTAATCCGTATTTGGT (site ACGCGCCCTAC)”, for which the “recombinant UMI read abundance (log10)” value came to 0.771. In the case of “ACGCGGACATGGACCGGTTTTCCCGGTAATCCGTATTTGCA (site ACGCGGACTTG)” it was 2.76; in that of “ACGCGGCCATGGACCGGTTTTCCCGGTAATCCGTATTTGCA (site ACGCGGCCTTG)”, 1.1; in that of “ACGCGTTCATGGACCGGTTTTCCCGGTAATCCGTATTTGCG (site ACGCGTTCTCG)”, 1.8.

As for “ACGGCATCATGGACCGGTTTTCCCGGTAATCCGTATTTGCA (site ACAGTATCTTG)”, the “recombinant UMI read abundance (log10)” value worked out at 1.47.

On to “ACGGCATCATGGACCGGTTTTCCCGGTAATCCGTATTTGCA (site ACGGCATCTTG)”, for which the “recombinant UMI read abundance (log10)” value was 1.77. In the case of “ACGGCTACATGGACCGGTTTTCCCGGTAATCCGTATTTGAC (site ACGGCTACTGT)” it was 2.45; in that of “ACGGGACCATGGACCGGTTTTCCCGGTAATCCGTATTTGTA (site ACGGGACCTTA)”, 0.00398. The same measure for “ACGGGCACATGGACCGGTTTTCCCGGTAATCCGTATTTGGT (site ACGGGCACTAC)”: 0.805; for “ACGGTATCATGGACCGGTTTTCCCGGTAATCCGTATTTGCG (site ACAGTATCTTG)”: 2.27. The same measure for “ACGGTATCATGGACCGGTTTTCCCGGTAATCCGTATTTGCG (site ACGGTATCTCG)”: 3.15.

On to “ACGGTATCATGGACCGGTTTTCCCGGTAATCCGTATTTGGG (site ACGGTATCTCC)”, for which the “recombinant UMI read abundance (log10)” value worked out at 1.62.

On to “ACGGTATCATGGACCGGTTTTCCCGGTAATCCGTATTTGTA (site ACAGTATCTTG)”, for which the “recombinant UMI read abundance (log10)” value came to 2.09. The same measure for “ACGGTATCATGGACCGGTTTTCCCGGTAATCCGTATTTGTA (site ACGGTATCTTA)”: 3.09. “ACGGTCACATGGACCGGTTTTCCCGGTAATCCGTATTTGTA (site ACGGTCACTTA)”: the “recombinant UMI read abundance (log10)” value stood at 1.59.

Take “ACGGTTTCATGGACCGGTTTTCCCGGTAATCCGTATTTGTG (site ACGGTTTCTCA)”: the “recombinant UMI read abundance (log10)” value worked out at 2.4. In the case of “ACGTACTCATGGACCGGTTTTCCCGGTAATCCGTATTTGGA (site ACGTACTCTTC)” it was 2.95; in that of “ACGTAGGCATGGACCGGTTTTCCCGGTAATCCGTATTTGAA (site ACGTAGGCTTT)”, 1.96; in that of “ACGTAGGCATGGACCGGTTTTCCCGGTAATCCGTATTTGGC (site AAGTAGGCTGC)”, 1.32. Turning to “ACGTAGGCATGGACCGGTTTTCCCGGTAATCCGTATTTGGC (site ACGTAGGCTGC)”, the “recombinant UMI read abundance (log10)” value came to 2.6. Turning to “ACGTAGGCATGGACCGGTTTTCCCGGTAATCCGTATTTGGC (site AGGTAGGCTGC)”, the “recombinant UMI read abundance (log10)” value is 1.06. For “ACGTAGGCATGGACCGGTTTTCCCGGTAATCCGTATTTGGC (site ATGTAGGCTGC)”, the “recombinant UMI read abundance (log10)” value is 1.21.

On to “ACGTGAGCATGGACCGGTTTTCCCGGTAATCCGTATTTGGA (site ACGTGAGCTTC)”, for which the “recombinant UMI read abundance (log10)” value was 1.78. The same measure for “ACGTTAGCATGGACCGGTTTTCCCGGTAATCCGTATTTGTG (site ACGTTAGCTCA)”: 1.84.

As to “ACGTTAGCATGGACCGGTTTTCCCGGTAATCCGTATTTGTG (site CCGTTAGCTCA)”, the “recombinant UMI read abundance (log10)” value came to 0.742. The same measure for “ACGTTAGCATGGACCGGTTTTCCCGGTAATCCGTATTTGTG (site GCGTTAGCTCA)”: 0.298; for “ACGTTAGCATGGACCGGTTTTCCCGGTAATCCGTATTTGTG (site TCGTTAGCTCA)”: 0.526. The same measure for “ACGTTCACATGGACCGGTTTTCCCGGTAATCCGTATTTGCC (site ACGTTCACTGG)”: 2.69; for “ACGTTGCCATGGACCGGTTTTCCCGGTAATCCGTATTTGTT (site ACGTTGCCTAA)”: 0.363. The same measure for “ACTAAAACATGGACCGGTTTTCCCGGTAATCCGTATTTGAG (site ACTAAAACTCT)”: 1.77.
